Assay results reported in patent US9504685B2, “Method for treating a pulmonary hypertension condition” (Gilead Sciences, Inc., priority 2006, dated 2016).

System: subjects with PAH
Assay: Example 2 (ARIES-1) placebo-controlled Phase III trial, efficacy
Type: in vivo, human
Details: for Clinical worsening event: Atrial septostomy / Clinical worsening event: Death / Clinical worsening event: Escape criteria / Clinical worsening event: Hospitalization for PAH / Clinical worsening event: Lung transplantation / Clinical worsening event: Study discontinuation due to addition of PAH treatment / Clinical worsening: Total subjects with ≧1 event / subjects hospitalized for worsening right heart failure / subjects who had an event of clinical worsening: 12 weeks; for Change in 6MWD from baseline to Week 12, mean: ITT population; for geometric mean percent change in plasma BNP, decrease from baseline / geometric mean percent change in plasma ET-1, increase from baseline: Week 12
Description: The primary objective of this study was to determine the effect of ambrisentan on exercise capacity in subjects with pulmonary arterial hypertension (PAH). The secondary objectives of this study were to evaluate effects of ambrisentan on other clinical measures of PAH, as well as safety and tolerability of the study drug.
Study drug was provided in round, biconvex, oral tablets that were identical in appearance. Three strengths of active study drug containing 2.5 mg, 5 mg or 10 mg of ambrisentan were used in this study. All study drug was packaged in blister cards. Subjects were instructed to take study drug once daily (q.d.) by mouth (p.o.) in the morning, with or without food.
The maximum study duration was up to 14 weeks from the time of initial screening procedures to the final study visit (Week 12). Screening procedures were performed a maximum of 2 weeks prior to the first dose of study drug. The maximum duration of study drug treatment was 12 weeks.
Men and women, 18 years of age or older, with idiopathic PAH, PAH associated with CTD, e.g., mixed CTD, CREST syndrome, systemic sclerosis (scleroderma), overlap syndrome or systemic lupus erythematosus, or PAH associated with anorexigen use or HIV infection were enrolled in this study. Subjects were to have a documented mean PAP≧25 mmHg, PVR>3 mmHgL/min, and PCWP or LVEDP<15 mmHg. Subjects must have been able to walk a distance of at least 150 m but no more than 450 m during 2 consecutive 6MWTs to be eligible for inclusion in the study.
After a 2 week screening period, eligible subjects were stratified based on the underlying etiology of PAH (idiopathic or non-idiopathic) and were randomized to 1 of 3 treatment groups (placebo, 5 mg or 10 mg ambrisentan) in a ratio of 1:1:1. One blinded dose reduction was permitted during the 12-week treatment period in the event of study drug intolerance (e.g., 10 mg to 5 mg, 5 mg to 2.5 mg, placebo to placebo). Subjects received a daily dose of 2.5 mg ambrisentan only if they reduced from the 5 mg dose group. Subjects were assessed for efficacy and safety at monthly intervals.
Therefore, after a minimum treatment period of 4 weeks, subjects who met 2 or more of the following predefined early escape criteria may have been removed from the study: • (a) a decrease from baseline of at least 20% in 6MWD; • (b) an increase of 1 or more WHO functional class; • (c) worsening right ventricular failure (e.g., as indicated by increased jugular venous pressure, new or worsening hepatomegaly, ascites or peripheral edema); • (d) rapidly progressing cardiogenic, hepatic or renal failure; and/or • (e) refractory systolic hypotension (systolic blood pressure <85 mmHg).
The primary efficacy endpoint was change from baseline in 6MWD evaluated after 12 weeks of treatment compared to placebo.
The secondary efficacy endpoints included: • (a) time to clinical worsening of PAH, as defined by the time from randomization to the first occurrence of death, lung transplantation, hospitalization for PAH, atrial septostomy, study discontinuation due to addition of other PAH therapeutic agents, or study discontinuation due to 2 or more early escape criteria; • (b) change from baseline measured after 12 weeks of treatment compared to placebo in: • (i) WHO functional class; • (ii) SF-36® health survey physical functioning scale; • (iii) BDI immediately following exercise; and/or • (iv) an assessment of the safety and tolerability of the study drug; and • (c) change from baseline measured after 12 weeks of treatment compared to placebo in plasma levels of ET-1, BNP and cTnT. Safety Assessments
For the ITT population, subjects were considered as belonging to their randomized treatment group, regardless of the actual treatment received.
The primary efficacy endpoint was the change from baseline in 6MWD evaluated after 12 weeks of treatment compared to placebo, where the last observation was carried forward. […]

[1] = 5 mg once daily, baseline to Week 12
[2] = 10 mg once daily, baseline to Week 12

COC(c1ccccc1)(c1ccccc1)[C@H](Oc1nc(C)cc(C)n1)C(=O)O [ambrisentan]
placebo-adjusted improvement in mean 6MWD at Week 12 (5 mg once daily): +30.6 m | subjects at least maintaining their baseline WHO functional class at Week 12 (5 mg once daily): 98.5% | Clinical worsening event: Atrial septostomy (5 mg once daily): 0 (0.0) subjects (% of ITT population) | Clinical worsening event: Death (5 mg once daily): 1 (1.5) subjects (% of ITT population) | Clinical worsening event: Escape criteria (5 mg once daily): 0 (0.0) subjects (% of ITT population) | Clinical worsening event: Hospitalization for PAH (5 mg once daily): 2 (3.0) subjects (% of ITT population) | Clinical worsening event: Lung transplantation (5 mg once daily): 0 (0.0) subjects (% of ITT population) | Clinical worsening event: Study discontinuation due to addition of PAH treatment (5 mg once daily): 0 (0.0) subjects (% of ITT population) | Clinical worsening: Total subjects with ≧1 event (5 mg once daily): 3 (4.5) subjects (% of ITT population) | subjects hospitalized for worsening right heart failure (5 mg once daily): 1 subjects | subjects who had an event of clinical worsening (5 mg once daily): 3 subjects | Change in 6MWD from baseline to Week 12, mean (5 mg once daily): +22.8 meters | geometric mean percent change in plasma BNP, decrease from baseline (5 mg once daily): 30% | geometric mean percent change in plasma ET-1, increase from baseline (5 mg once daily): 96% | Change in SF-36 Bodily pain, mean (SD) [1]: −1.43 ± 13.21 | Change in SF-36 General health, mean (SD) [1]: +0.08 ± 8.45 | Change in SF-36 Mental component summary, mean (SD) [1]: +0.50 ± 10.50 | Change in SF-36 Mental health, mean (SD) [1]: +0.81 ± 9.67 | Change in SF-36 Physical component summary, mean (SD) [1]: +1.88 ± 8.68 | Change in SF-36 Physical functioning, mean (SD) [1]: +3.86 ± 7.14 | Change in SF-36 Role-emotional, mean (SD) [1]: +1.41 ± 13.95 | Change in SF-36 Role-physical, mean (SD) [1]: +4.22 ± 10.52 | Change in SF-36 Social functioning, mean (SD) [1]: +1.11 ± 13.63 | Change in SF-36 Vitality, mean (SD) [1]: +2.38 ± 10.06 | Change in WHO functional class: +1 class [1]: 1 (1.5) subjects (% of ITT population) | Change in WHO functional class: +2 classes [1]: 0 (0.0) subjects (% of ITT population) | Change in WHO functional class: no change [1]: 47 (70.1) subjects (% of ITT population) | Change in WHO functional class: −1 class [1]: 18 (26.9) subjects (% of ITT population) | Change in WHO functional class: −2 classes [1]: 1 (1.5) subjects (% of ITT population) | placebo-adjusted improvement in mean 6MWD at Week 12 (10 mg once daily): +51.4 m | subjects at least maintaining their baseline WHO functional class at Week 12 (10 mg once daily): 95.5% | Clinical worsening event: Atrial septostomy (10 mg once daily): 0 (0.0) subjects (% of ITT population) | Clinical worsening event: Death (10 mg once daily): 1 (1.5) subjects (% of ITT population) | Clinical worsening event: Escape criteria (10 mg once daily): 2 (3.0) subjects (% of ITT population) | Clinical worsening event: Hospitalization for PAH (10 mg once daily): 2 (3.0) subjects (% of ITT population) | Clinical worsening event: Lung transplantation (10 mg once daily): 0 (0.0) subjects (% of ITT population) | Clinical worsening event: Study discontinuation due to addition of PAH treatment (10 mg once daily): 1 (1.5) subjects (% of ITT population) | Clinical worsening: Total subjects with ≧1 event (10 mg once daily): 3 (4.5) subjects (% of ITT population) | subjects hospitalized for worsening right heart failure (10 mg once daily): 1 subjects | subjects who had an event of clinical worsening (10 mg once daily): 3 subjects | Change in 6MWD from baseline to Week 12, mean (10 mg once daily): +43.6 meters | geometric mean percent change in plasma BNP, decrease from baseline (10 mg once daily): 45% | geometric mean percent change in plasma ET-1, increase from baseline (10 mg once daily): 48% | Change in SF-36 Bodily pain, mean (SD) [2]: +2.26 ± 12.22 | Change in SF-36 General health, mean (SD) [2]: +3.25 ± 8.81 | Change in SF-36 Mental component summary, mean (SD) [2]: +2.11 ± 13.17 | Change in SF-36 Mental health, mean (SD) [2]: +1.55 ± 12.66 | Change in SF-36 Physical component summary, mean (SD) [2]: +4.79 ± 7.90 | Change in SF-36 Physical functioning, mean (SD) [2]: +4.52 ± 7.16 | Change in SF-36 Role-emotional, mean (SD) [2]: +2.98 ± 17.37 | Change in SF-36 Role-physical, mean (SD) [2]: +6.67 ± 10.35
